Read-outs that look alike come from different tables or passages of the source.
What was measured:
[1] = test system: cultured human mast cells; assay: Degranulation inhibition test using cultured human mast cells (IgE cross-linking, β-Hexosaminidase release); type: cell-based; settings: Mast cell, cultured human mast cells, read-out: human degranulation ave. IC50
How it was run: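 CD34+ cord-blood cells cultured ≥8 weeks with SCF/IL-6/IL-3; FcεRI primed 5 days with rhIL-4 (1 ng/mL) and hIgE (0.5 μg/mL). Compound (0.1% DMSO) preincubated 10 min at 37 °C, then anti-IgE (final 10 μg/mL) 30 min; released β-hexosaminidase read at 405 nm versus total lysate, IC50 (M).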

[2] = biological target: GST-Syk Full Protein (human) (Homo sapiens, UniProt P43405); assay: Syk kinase inhibition test (HTRF method); type: biochemical
How it was run: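 Human GST-Syk full-length (6.4 nM) phosphorylated biotin-EDPDYEWPSA-NH2 (250 nM) with 100 μM ATP in HEPES pH 7.0/MgCl2 buffer, 2% DMSO, 30 min at room temperature. EDTA stop, then HTRF detection (streptavidin-XL665, Eu anti-phosphotyrosine) after 1 h; 665/620 ratio read.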

[3] = Tables 1-x, compounds A, read-out: sykHTRF ave IC50
[4] = anti-hIgE stimulation, β-Hexosaminidase index, average
[5] = HTRF, 100 μM ATP, 30 min room temperature, average, read-out: sykHTRF ave IC50
[6] = Tables 2-x, thiophene compounds B
[7] = Tables 2-x, thiophene compounds B, read-out: sykHTRK ave IC50

IC50 [1, 4] [nM]	IC50 [2, 5] [nM]	Compound	other results
> 1000	100 to 1000	Cc1ccnc(Nc2cccc(-c3cnc([C@H]4CC[C@H](CN5CCCC(O)C5)CC4)s3)n2)c1 (some centres unmarked) [Compound A-315]	–
> 1000	100 to 1000	Cc1ccnc(Nc2cccc(-c3cnc([C@H](C)NC(=O)c4ccccc4)s3)n2)c1 [Compound A-348]	–
> 1000	100 to 1000	Cc1ccnc(Nc2cccc(-c3cnc(CN(C)C(=O)N(C)C)s3)n2)c1 [Compound A-357]	–
< 100	< 100	C[C@H](O)c1ncc(-c2cccc(Nc3cc(CCO)ccn3)n2)s1 [Compound A-321, (S)-1-(5-{6-[4-(2-hydroxyethyl)pyridin-2-ylamino]pyridin-2-yl}thiazol-2-yl)ethanol]	–
100 to 1000	< 100	Cc1ccnc(Nc2cccc(-c3cnc([C@H]4CC[C@H](C(=O)NN5CCC(O)CC5)CC4)s3)n2)c1 [Compound A-298, N-(4-hydroxypiperidin-1-yl)-trans-4-{5-[6-(4-methylpyridin-2-ylamino)pyridin-2-yl]thiazol-2-yl}cyclohexanecarboxamide]	–

The remaining lines, values behind:

Compound	IC50 [1, 4] [nM]	IC50 [2, 5] [nM]	other results
Cc1ccnc(Nc2cccc(-c3cnc([C@@H]4COC(=O)N4CC(=O)N(C)C)s3)n2)c1 [Compound A-408]	–	–	IC50 ([1]; Tables 1-x, compounds A): > 1000 nM; IC50 [2, 3]: > 1000 nM
COc1ccc(C[C@H](N)c2ncc(-c3cccc(Nc4cc(C)ccn4)n3)s2)cc1OC [Compound A-138]	> 1000	100 to 1000	–
Cc1ccnc(Nc2cccc(-c3cnc(N4CCC(NC(=O)CO)CC4)s3)n2)c1 [Compound A-482, 2-hydroxy-N-(1-{5-[6-(4-methylpyridin-2-ylamino)pyridin-2-yl]thiazol-2-yl}piperidin-4-yl)acetamide]	–	–	IC50 ([1]; Tables 1-x, compounds A): 100 to 1000 nM; IC50 [2, 3]: < 100 nM
Cc1ccnc(Nc2cccc(-c3cnc(CN4CCN(c5ccc(O)cc5)CC4)s3)n2)c1 [Compound A-382]	–	–	IC50 ([1]; Tables 1-x, compounds A): 100 to 1000 nM; IC50 [2, 3]: 100 to 1000 nM
CC(=O)N[C@@H](C)c1ncc(-c2cccc(Nc3cc(Cl)ccn3)n2)s1 [Compound A-81, N—((S)-1-{5-[6-(4-chloropyridin-2-ylamino)pyridin-2-yl]thiazol-2-yl}ethyl)acetamide]	100 to 1000	< 100	–
Cc1ccnc(Nc2cccc(-c3cnc(Cc4ccc(C(=O)N5C[C@@H](O)[C@@H](O)C5)cc4)s3)n2)c1 [Compound A-244]	100 to 1000	100 to 1000	–
O=C(O)[C@H]1CC[C@H](c2ncc(-c3cccc(Nc4cc(Cl)ccn4)n3)s2)CC1 [Compound A-204, trans-4-{5-[6-(4-chloropyridin-2-ylamino)pyridin-2-yl]thiazol-2-yl}cyclohexanecarboxylic acid]	100 to 1000	< 100	–
Cc1ccnc(Nc2cccc(-c3cnc([C@H]4CC[C@H](C(=O)N5C[C@H](O)C[C@@H](O)C5)CC4)s3)n2)c1 [Compound A-226]	100 to 1000	100 to 1000	–
Cc1ccnc(Nc2cccc(-c3cnc([C@H](C)NC(=O)C(C)C)s3)n2)c1 [Compound A-31]	100 to 1000	100 to 1000	–
CO/N=C(\N)c1ccc(-c2cccc(Nc3cc(C)ccn3)n2)s1 [Compound B-69]	–	–	IC50 [1, 6]: 100 to 1000 nM; IC50 [2, 7]: 100 to 1000 nM
Cc1ccnc(Nc2cccc(-c3cnc([C@@H](O)C(C)C)s3)n2)c1 [Compound A-82, (S)-2-methyl-1-{5-[6-(4-methylpyridin-2-ylamino)pyridin-2-yl]thiazol-2-yl}propan-1-ol]	100 to 1000	< 100	–
Cc1ccnc(Nc2cccc(-c3ccc(C(O)CCO)s3)n2)c1 (centres unmarked) [Compound B-54]	–	–	IC50 [1, 6]: 100 to 1000 nM; IC50 [2, 7]: 100 to 1000 nM
Cc1ccnc(Nc2cccc(-c3cnc(C(=O)NCCO)s3)n2)c1 [Compound A-29]	100 to 1000	100 to 1000	–
Cc1ccnc(Nc2cccc(-c3cnc(N4C[C@@H](O)[C@@H](O)C4)s3)n2)c1 [Compound A-423, (3R,4S)-1-{5-[6-(4-methylpyridin-2-ylamino)pyridin-2-yl]thiazol-2-yl}pyrrolidine-3,4-diol]	–	–	IC50 ([1]; Tables 1-x, compounds A): 100 to 1000 nM; IC50 [2, 3]: < 100 nM
Cc1ccnc(Nc2cccc(-c3cnc([C@@H](NC(=O)OC(C)(C)C)C(C)C)s3)n2)c1 [Compound A-36]	> 1000	> 1000	–
Cc1ccnc(Nc2cccc(-c3cnc(N(C)C4CCN(C(=O)CCC(=O)O)CC4)s3)n2)c1 [Compound A-553, 4-[4-(N-methyl-N-{5-[6-(4-methylpyridin-2-ylamino)pyridin-2-yl]thiazol-2-yl}amino)piperidin-1-yl]-4-oxobutyric acid]	–	–	IC50 ([1]; Tables 1-x, compounds A): > 1000 nM; IC50 [2, 3]: < 100 nM
Cc1ccnc(Nc2cccc(-c3cnc(C4CCN(C(=O)C5CCNCC5)CC4)s3)n2)c1 [Compound A-292]	> 1000	100 to 1000	–
Cc1ccnc(Nc2cccc(-c3cnc(CN4C[C@H](NCc5ccccc5)[C@@H](O)C4)s3)n2)c1 [Compound A-400]	–	–	IC50 ([1]; Tables 1-x, compounds A): 100 to 1000 nM; IC50 [2, 3]: 100 to 1000 nM
CC(=O)c1ccc(-c2cccc(Nc3cc(C4=NC(C)(C)CO4)ccn3)n2)s1 [Compound B-87, 1-(5-{6-[4-(4,4-dimethyl-4,5-dihydrooxazol-2-yl)pyridin-2-ylamino]pyridin-2-yl}thiophen-2-yl)ethanone]	–	–	IC50 [1, 6]: 100 to 1000 nM; IC50 [2, 7]: < 100 nM

Compound	IC50 [1, 4] [nM]	IC50 [2, 5] [nM]	other results
CNC(=O)C1CCCN(c2ncc(-c3cccc(Nc4cc(C)ccn4)n3)s2)C1 (centres unmarked) [Compound A-477, N-methyl-1-{5-[6-(4-methylpyridin-2-ylamino)pyridin-2-yl]thiazol-2-yl}piperidine-3-carboxamide]	–	–	IC50 ([1]; Tables 1-x, compounds A): 100 to 1000 nM; IC50 [2, 3]: < 100 nM
Cc1ccnc(Nc2cccc(-c3ccc(C(C)N)s3)n2)c1 (centres unmarked) [Compound B-92]	–	–	IC50 [1, 6]: 100 to 1000 nM; IC50 [2, 7]: 100 to 1000 nM
Cc1ccnc(Nc2cccc(-c3cnc([C@@H]4COC(=O)N4)s3)n2)c1 [Compound A-14, (S)-4-{5-[6-(4-methylpyridin-2-ylamino)pyridin-2-yl]thiazol-2-yl}oxazolidin-2-one]	100 to 1000	< 100	–
Cc1ccnc(Nc2cccc(-c3cnc(COc4ccc(C(=O)O)cc4)s3)n2)c1 [Compound A-605, 4-{5-[6-(4-methylpyridin-2-ylamino)pyridin-2-yl]thiazol-2-ylmethoxy}benzoic acid]	–	–	IC50 ([1]; Tables 1-x, compounds A): > 1000 nM; IC50 [2, 3]: < 100 nM
COC(=O)[C@H]1CC[C@H](c2ncc(-c3cccc(Nc4cc(Cl)ccn4)n3)s2)CC1 [Compound A-203]	100 to 1000	100 to 1000	–
CC(=O)Nc1ccc(C[C@H](NC(C)=O)c2ncc(-c3cccc(Nc4cc(C)ccn4)n3)s2)cc1 [Compound A-179]	100 to 1000	100 to 1000	–
Cc1ccnc(Nc2cccc(-c3cnc([C@H](C)N)s3)n2)c1 [Compound A-9, N—((S)-1-{5-[6-(4-methylpyridin-2-ylamino)pyridin-2-yl]thiazol-2-yl}ethyl)amine]	100 to 1000	100 to 1000	–
CC(=O)N1CCC(c2ncc(-c3cccc(Nc4cc(C)ccn4)n3)s2)CC1 [Compound A-94]	100 to 1000	100 to 1000	–
Cc1ccnc(Nc2cccc(-c3cnc(C(=O)NC(C)(C)CO)s3)n2)c1 [Compound A-34]	> 1000	100 to 1000	–
Cc1ccnc(Nc2cccc(-c3cnc(CCC4CCC(O)CC4)s3)n2)c1 (centres unmarked) [Compound A-173, 4-(2-{5-[6-(4-methylpyridin-2-ylamino)pyridin-2-yl]thiazol-2-yl}ethyl)cyclohexanol]	100 to 1000	< 100	–
Cc1ccnc(Nc2cccc(-c3cnc(N4CC[C@@H](NC(=O)CO)C4)s3)n2)c1 [Compound A-475, 2-hydroxy-N—((R)-1-{5-[6-(4-methylpyridin-2-ylamino)pyridin-2-yl]thiazol-2-yl}pyrrolidin-3-yl)acetamide]	–	–	IC50 ([1]; Tables 1-x, compounds A): 100 to 1000 nM; IC50 [2, 3]: < 100 nM
Cc1ccnc(Nc2cccc(-c3cnc(N4CCC[C@@H](C(=O)O)C4)s3)n2)c1 [Compound A-531, (R)-1-{5-[6-(4-methylpyridin-2-ylamino)pyridin-2-yl]thiazol-2-yl}piperidine-3-carboxylic acid]	–	–	IC50 ([1]; Tables 1-x, compounds A): 100 to 1000 nM; IC50 [2, 3]: < 100 nM
Cc1ccnc(Nc2cccc(-c3cnc(N(C)[C@H]4CC[C@H](CC(=O)O)CC4)s3)n2)c1 [Compound A-610, [trans-4-(N-methyl-N-{5-[6-(4-methylpyridin-2-ylamino)pyridin-2-yl]thiazol-2-yl}amino)cyclohexyl]acetic acid]	–	–	IC50 ([1]; Tables 1-x, compounds A): 100 to 1000 nM; IC50 [2, 3]: < 100 nM
Cc1ccnc(Nc2cccc(-c3cnc(C4CCN(C(=O)NCCO)CC4)s3)n2)c1 [Compound A-266]	100 to 1000	100 to 1000	–
CONC(=O)c1ccc(-c2cccc(Nc3cc(C)ccn3)n2)s1 [Compound B-64]	–	–	IC50 [1, 6]: 100 to 1000 nM; IC50 [2, 7]: 100 to 1000 nM
CC(O)c1ccc(-c2cccc(Nc3cc(CCO)ccn3)n2)s1 (centres unmarked) [Compound B-55, 1-(5-{6-[4-(2-hydroxyethyl)pyridin-2-ylamino]pyridin-2-yl}thiophen-2-yl)ethanol]	–	–	IC50 [1, 6]: 100 to 1000 nM; IC50 [2, 7]: < 100 nM
Cc1ccnc(Nc2cccc(-c3cnc(CNC[C@H]4CC[C@H](C(=O)O)CC4)s3)n2)c1 [Compound A-207]	> 1000	100 to 1000	–
Cc1ccnc(Nc2cccc(-c3ccc(C(=O)O)s3)n2)c1 [Compound B-20]	–	–	IC50 [1, 6]: > 1000 nM; IC50 [2, 7]: 100 to 1000 nM
CC(=O)N1CCC(Nc2ncc(-c3cccc(Nc4cc(C)ccn4)n3)s2)CC1 [Compound A-514, 1-(4-{5-[6-(4-methylpyridin-2-ylamino)pyridin-2-yl]thiazol-2-ylamino}piperidin-1-yl)ethanone]	–	–	IC50 ([1]; Tables 1-x, compounds A): 100 to 1000 nM; IC50 [2, 3]: < 100 nM
